Legend:
RON (human) = RON (human) (Homo sapiens, UniProt Q04912); assay: RON (human) AlphaScreen kinase assay, Km of ATP; format: biochemical; conditions: AlphaScreen, Km of ATP; read-out: RON biochemical IC50
Outline: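 Reaction was started with enzyme and run 30 min at RT. PT66 donor/acceptor beads in an EDTA-containing Tris pH 7.5 buffer were then added, and the signal was read after 1 h.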

MET (human) = MET (human) (Homo sapiens, UniProt P08581); assay: MET (human) AlphaScreen kinase assay, Km of ATP; format: biochemical; conditions: AlphaScreen, Km of ATP; read-out: Met biochemical IC50
Chain of MET (human) (P08581 25-1390): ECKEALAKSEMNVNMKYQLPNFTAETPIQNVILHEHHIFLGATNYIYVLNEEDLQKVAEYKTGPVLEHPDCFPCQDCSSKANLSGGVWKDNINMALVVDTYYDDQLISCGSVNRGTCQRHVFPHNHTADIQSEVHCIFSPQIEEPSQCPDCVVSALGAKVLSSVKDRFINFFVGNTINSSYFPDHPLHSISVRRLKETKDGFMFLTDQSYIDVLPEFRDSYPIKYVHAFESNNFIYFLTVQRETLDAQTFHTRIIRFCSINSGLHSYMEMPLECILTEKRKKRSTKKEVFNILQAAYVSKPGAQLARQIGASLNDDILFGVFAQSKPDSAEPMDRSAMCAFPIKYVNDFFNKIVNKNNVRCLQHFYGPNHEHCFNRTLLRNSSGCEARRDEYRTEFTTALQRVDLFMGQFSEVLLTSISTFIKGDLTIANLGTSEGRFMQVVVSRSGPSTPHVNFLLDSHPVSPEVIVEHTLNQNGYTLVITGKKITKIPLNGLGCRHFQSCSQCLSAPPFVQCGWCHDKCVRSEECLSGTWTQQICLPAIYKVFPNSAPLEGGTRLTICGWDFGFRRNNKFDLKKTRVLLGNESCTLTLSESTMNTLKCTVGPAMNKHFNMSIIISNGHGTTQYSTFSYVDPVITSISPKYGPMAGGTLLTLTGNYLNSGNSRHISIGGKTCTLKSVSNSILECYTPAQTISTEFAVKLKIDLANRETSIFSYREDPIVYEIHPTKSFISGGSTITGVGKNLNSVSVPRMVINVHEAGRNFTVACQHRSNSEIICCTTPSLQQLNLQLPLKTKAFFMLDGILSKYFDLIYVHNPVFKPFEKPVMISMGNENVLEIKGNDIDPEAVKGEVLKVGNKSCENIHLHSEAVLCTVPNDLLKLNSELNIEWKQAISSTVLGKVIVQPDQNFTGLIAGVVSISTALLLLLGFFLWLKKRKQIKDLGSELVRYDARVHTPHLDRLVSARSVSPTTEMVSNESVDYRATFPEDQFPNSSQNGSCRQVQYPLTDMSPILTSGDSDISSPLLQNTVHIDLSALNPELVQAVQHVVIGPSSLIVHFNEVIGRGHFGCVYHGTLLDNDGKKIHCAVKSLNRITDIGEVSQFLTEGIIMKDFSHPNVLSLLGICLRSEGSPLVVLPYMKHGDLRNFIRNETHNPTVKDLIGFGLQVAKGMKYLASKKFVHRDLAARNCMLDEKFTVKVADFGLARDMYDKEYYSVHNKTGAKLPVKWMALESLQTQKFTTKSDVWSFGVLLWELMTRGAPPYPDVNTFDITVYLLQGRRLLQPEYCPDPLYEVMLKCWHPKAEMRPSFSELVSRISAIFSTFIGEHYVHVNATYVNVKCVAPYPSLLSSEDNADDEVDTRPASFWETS
Outline: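 Human MET at lot-optimised concentration in 50 mM Tris pH 7.4 buffer with 1 mM DTT, compound at 1% DMSO final; enzyme starts the reaction, 60 min at RT.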

Chain of RON (human) (Q04912 25-1400): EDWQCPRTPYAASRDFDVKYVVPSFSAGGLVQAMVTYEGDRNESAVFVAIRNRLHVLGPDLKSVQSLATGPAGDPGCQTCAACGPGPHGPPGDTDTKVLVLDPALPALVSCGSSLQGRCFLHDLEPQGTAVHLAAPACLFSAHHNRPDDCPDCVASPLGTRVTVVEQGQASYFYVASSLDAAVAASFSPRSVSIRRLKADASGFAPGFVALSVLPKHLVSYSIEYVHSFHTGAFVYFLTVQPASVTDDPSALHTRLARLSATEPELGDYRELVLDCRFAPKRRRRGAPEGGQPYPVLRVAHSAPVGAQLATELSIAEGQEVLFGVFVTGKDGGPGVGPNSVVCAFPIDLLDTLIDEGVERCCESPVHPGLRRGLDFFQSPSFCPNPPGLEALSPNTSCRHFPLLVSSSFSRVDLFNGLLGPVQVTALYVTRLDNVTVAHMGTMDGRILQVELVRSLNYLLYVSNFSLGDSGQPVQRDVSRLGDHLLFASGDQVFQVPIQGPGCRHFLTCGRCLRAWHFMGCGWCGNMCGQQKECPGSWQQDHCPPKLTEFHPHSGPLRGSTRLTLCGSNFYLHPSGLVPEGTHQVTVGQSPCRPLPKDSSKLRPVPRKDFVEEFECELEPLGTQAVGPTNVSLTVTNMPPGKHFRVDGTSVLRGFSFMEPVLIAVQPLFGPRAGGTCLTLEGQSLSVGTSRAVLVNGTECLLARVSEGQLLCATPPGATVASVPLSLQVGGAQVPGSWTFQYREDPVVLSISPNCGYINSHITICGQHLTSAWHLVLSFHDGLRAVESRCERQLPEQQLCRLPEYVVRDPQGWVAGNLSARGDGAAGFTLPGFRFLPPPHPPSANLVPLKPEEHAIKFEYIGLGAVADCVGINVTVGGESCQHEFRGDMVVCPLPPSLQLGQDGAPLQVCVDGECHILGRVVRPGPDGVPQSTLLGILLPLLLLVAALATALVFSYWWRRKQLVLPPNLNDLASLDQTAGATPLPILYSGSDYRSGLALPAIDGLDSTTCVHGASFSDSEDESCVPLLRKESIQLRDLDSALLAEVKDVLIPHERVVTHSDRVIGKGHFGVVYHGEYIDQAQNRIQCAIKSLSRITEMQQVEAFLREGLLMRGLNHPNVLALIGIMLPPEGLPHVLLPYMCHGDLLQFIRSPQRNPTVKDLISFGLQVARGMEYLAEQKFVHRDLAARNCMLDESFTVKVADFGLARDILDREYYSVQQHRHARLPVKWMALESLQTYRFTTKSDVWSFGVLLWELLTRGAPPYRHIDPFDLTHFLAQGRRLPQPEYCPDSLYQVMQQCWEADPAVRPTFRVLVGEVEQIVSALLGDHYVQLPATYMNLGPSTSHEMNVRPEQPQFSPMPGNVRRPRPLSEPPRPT

Structure (SMILES) | IC50 (RON (human)) [nM] | IC50 (MET (human)) [nM]
CNC(=O)CN1CC=C(c2coc3c(O[C@H](C)c4c(Cl)ccc(F)c4Cl)c(N)ncc23)CC1 [Example 201, 2-(4-{6-Amino-7-[(R)-1-(2,6-dichloro-3-fluorophenyl)ethoxy]-furo[3,2-c]pyridin-3-yl}-3,6-dihydro-2H-pyridin-1-yl)-N-methylacetamide] | 500 to 5000 | < 500
C[C@@H](Oc1c(N)ncc2c(C3=CCN(C(=O)[C@@H]4CCCNC4)CC3)coc12)c1c(Cl)ccc(F)c1Cl [Example 241, (4-{6-Amino-7-[(R)-1-(2,6-dichloro-3-fluorophenyl)ethoxy]-furo[3,2-c]pyridin-3-yl}-3,6-dihydro-2H-pyridin-1-yl)-(R)-piperidin-3-ylmethanone] | < 500 | < 500
Nc1ncc2c(-c3cnn(C4CCNCC4)c3)coc2c1OC(c1c(F)ccc(F)c1Cl)C1CC1 (centres unmarked) [Example 367, 7-[(2-Chloro-3,6-difluorophenyl)cyclopropylmethoxy]-3-(1-piperidin-4-yl-1H-pyrazol-4-yl)furo[3,2-c]pyridin-6-ylamine] | < 500 | < 500
COCCNC(=O)c1ccc(-c2coc3c(O[C@H](C)c4c(Cl)ccc(F)c4Cl)c(N)ncc23)cc1 [Example 285, 4-{6-Amino-7-[(R)-1-(2,6-dichloro-3-fluorophenyl)ethoxy]furo[3,2-c]pyridin-3-yl}-N-(2-methoxyethyl)benzamide] | 500 to 5000 | 500 to 5000
C[C@@H](Oc1c(N)ncc2c(-c3cnc(N(C)C)nc3)coc12)c1c(Cl)ccc(F)c1Cl [Example 124, 7-[(R)-1-(2,6-Dichloro-3-fluorophenyl)ethoxy]-3-(2-dimethylaminopyrimidin-5-yl)furo[3,2-c]pyridin-6-ylamine] | 500 to 5000 | 500 to 5000
C[C@@H](Oc1c(N)ncc2c(-c3ccc(N)cc3)coc12)c1c(Cl)ccc(F)c1Cl [Example 77, 3-(4-Aminophenyl)-7-[(R)-1-(2,6-dichloro-3-fluorophenyl)-ethoxy]furo[3,2-c]pyridin-6-ylamine] | 500 to 5000 | 500 to 5000
Nc1ncc2c(-c3cnn(C4CCNCC4)c3)coc2c1O[C@H]1CCC[C@H]1c1ccccc1 [Example 407] | 500 to 5000 | < 500
C[C@@H](Oc1c(N)ncc2c(C3=CCN(C(=O)[C@@H](N)c4ccccc4)CC3)coc12)c1c(Cl)ccc(F)c1Cl [Example 261, (2S)-2-Amino-1-[4-{6-amino-7-[(1R)-1-(2,6-dichloro-3-fluoro-phenyl)ethoxy]furo[3,2-c]pyridin-3-yl}-3,6-dihydropyridin-1(2H)-yl]-2-phenylethanone] | 500 to 5000 | < 500
C[C@@H](Oc1c(N)ncc2c(C3=CCN(C(=O)c4ccccc4)CC3)coc12)c1c(Cl)ccc(F)c1Cl [Example 11, (4-{6-Amino-7-[(R)-1-(2,6-dichloro-3-fluorophenyl)-ethoxy]-furo[3,2-c]pyridin-3-yl}-3,6-dihydro-2H-pyridin-1-yl)-phenylmethanone] | 500 to 5000 | 500 to 5000
CC(Oc1c(N)ncc2c(-c3cnn(C4CCNCC4)c3)coc12)c1ccccc1C(F)(F)F (centres unmarked) [Example 346, 3-(1-Piperidin-4-yl-1H-pyrazol-4-yl)-7-[1-(2-trifluoromethyl-phenyl)ethoxy]furo[3,2-c]pyridin-6-ylamine] | 500 to 5000 | 500 to 5000
Cc1ccccc1C(C)Oc1c(N)ncc2c(-c3cnn(C4CCNCC4)c3)coc12 (centres unmarked) [Example 342, 3-(1-Piperidin-4-yl-1H-pyrazol-4-yl)-7-(1-o-tolylethoxy)furo[3,2-c]pyridin-6-ylamine] | 500 to 5000 | < 500
C[C@@H](Oc1c(N)ncc2c(C3=CCN(C(=O)[C@]4(C)CCCN4)CC3)coc12)c1c(Cl)ccc(F)c1Cl [Example 160, [4-{6-Amino-7-[(1R)-1-(2,6-dichloro-3-fluorophenyl)ethoxy]furo[3,2-c]pyridin-3-yl}-3,6-dihydropyridin-1(2H)-yl][(2S)-2-methylpyrrolidin-2-yl]methanone] | < 500 | < 500
C[C@@H](Oc1c(N)ncc2c(C3=CCN(C4CN(C(N)=O)C4)CC3)coc12)c1c(Cl)ccc(F)c1Cl [Example 324, 3-(4-{6-Amino-7-[(R)-1-(2,6-dichloro-3-fluorophenyl)ethoxy]furo[3,2-c]pyridin-3-yl}-3,6-dihydro-2H-pyridin-1-yl)azetidine-1-carboxamide] | < 500 | < 500
Nc1ncc2c(-c3cnn(C4CCNCC4)c3)coc2c1OC1CCCc2cccc(Cl)c21 (centres unmarked) [Example 389, 7-(8-Chloro-1,2,3,4-tetrahydronaphthalen-1-yloxy)-3-(1-piperidin-4-yl-1H-pyrazol-4-yl)furo[3,2-c]pyridin-6-ylamine] | 500 to 5000 | 500 to 5000
CC(O)C(=O)N1CC=C(c2coc3c(O[C@H](C)c4c(Cl)ccc(F)c4Cl)c(N)ncc23)CC1 (stereo partly drawn) [Example 229, 1-(4-{6-Amino-7-[(R)-1-(2,6-dichloro-3-fluorophenyl)ethoxy]-furo[3,2-c]pyridin-3-yl}-3,6-dihydro-2H-pyridin-1-yl)-2-hydroxypropan-1-one] | < 500 | < 500
C[C@@H](Oc1c(N)ncc2c(-c3cnn([C@H]4CCNC4)c3)coc12)c1c(Cl)ccc(F)c1Cl [Example 161, 7-[(1R)-1-(2,6-dichloro-3-fluorophenyl)ethoxy]-3-{1-[(3S)-pyrrolidin-3-yl]-1H-pyrazol-4-yl}furo[3,2-c]pyridin-6-amine] | < 500 | < 500
C[C@@H](Oc1c(N)ncc2c(C3=CCN(C(=O)C4CCNCC4)CC3)coc12)c1c(Cl)ccc(F)c1Cl [Example 21, (4-{6-Amino-7-[(R)-1-(2,6-dichloro-3-fluorophenyl)-ethoxy]-furo[3,2-c]pyridin-3-yl}-3,6-dihydro-2H-pyridin-1-yl)-piperidin-4-ylmethanone] | < 500 | < 500
CC(Oc1c(N)ncc2c(-c3cnn(C4CCNCC4)c3)coc12)c1cc(F)cc(-c2cnn(C)c2)c1 (centres unmarked) [Example 452, 7-{1-[3-Fluoro-5-(1-methyl-1H-pyrazol-4-yl)phenyl]ethoxy}-3-(1-piperidin-4-yl-1H-pyrazol-4-yl)furo[3,2-c]pyridin-6-ylamine] | 500 to 5000 | < 500
CNc1ncc2c(C3=CCN(C)CC3)coc2c1O[C@H](C)c1c(Cl)ccc(F)c1Cl [Example 36, [7-[(R)-1-(2,6-Dichloro-3-fluorophenyl)-ethoxy]-3-(1-methyl-1,2,3,6-tetrahydropyridin-4-yl)-furo[3,2-c]pyridin-6-yl]-methylamine] | < 500 | < 500
C[C@@H](Oc1c(N)ncc2c(-c3ccc(N)nc3)coc12)c1c(Cl)ccc(F)c1Cl [Example 131, 3-(6-Amino-pyridin-3-yl)-7-[(R)-(2,6-dichloro-3-fluorophenyl)ethoxy]furo[3,2-c]pyridin-6-ylamine] | 500 to 5000 | < 500
CNC(=O)c1ccc(-c2coc3c(O[C@H](C)c4c(Cl)ccc(F)c4Cl)c(N)ncc23)cc1 [Example 289, 4-{6-Amino-7-[(R)-1-(2,6-dichloro-3-fluorophenyl)ethoxy]furo[3,2-c]pyridin-3-yl}-N-methylbenzamide] | 500 to 5000 | 500 to 5000
CC(Oc1c(N)ncc2c(-c3cnn(C4CCNCC4)c3)coc12)c1cccc(Br)c1 (centres unmarked) [Example 387, 7-[1-(3-Bromophenyl)ethoxy]-3-(1-piperidin-4-yl-1H-pyrazol-4-yl)furo[3,2-c]pyridin-6-ylamine] | 500 to 5000 | < 500
C[C@@H]1CN(C(=O)N2CC=C(c3coc4c(O[C@H](C)c5c(Cl)ccc(F)c5Cl)c(N)ncc34)CC2)C[C@H](C)O1 [Example 30, (4-{6-Amino-7-[(R)-1-(2,6-dichloro-3-fluorophenyl)-ethoxy]-furo[3,2-c]pyridin-3-yl}-3,6-dihydro-2H-pyridin-1-yl)-((2R,6S)-2,6-dimethylmorpholin-4-yl)-methanone] | 500 to 5000 | 500 to 5000
C[C@@H](Oc1c(N)ncc2c(C3=CCN(C(=O)Nc4ccccc4Cl)CC3)coc12)c1c(Cl)ccc(F)c1Cl [Example 152, 4-{6-Amino-7-[(1R)-1-(2,6-dichloro-3-fluorophenyl)ethoxy]furo[3,2-c]pyridin-3-yl}-N-(2-chlorophenyl)-3,6-dihydropyridine-1(2H)-carboxamide] | 500 to 5000 | 500 to 5000
C[C@@H](Oc1c(N)ncc2c(C(=O)NC(C)(C)C)coc12)c1c(Cl)ccc(F)c1Cl [Example 184, 6-Amino-7-[(R)-1-(2,6-dichloro-3-fluorophenyl)ethoxy]furo[3,2-c]pyridine-3-carboxylic acid tert-butylamide] | 5000 to 20000 | 500 to 5000
C[C@@H](Oc1c(N)ncc2c(C3=CCN(c4c(N)c(=O)c4=O)CC3)coc12)c1c(Cl)ccc(F)c1Cl [Example 205, 3-Amino-4-(4-{6-amino-7-[(R)-1-(2,6-dichloro-3-fluorophenyl)ethoxy]-furo[3,2-c]pyridin-3-yl}-3,6-dihydro-2H-pyridin-1-yl)-cyclobut-3-ene-1,2-dione] | 500 to 5000 | < 500
C[C@@H](Oc1c(N)ncc2c(-c3csc(CN4CCCC4)c3)coc12)c1c(Cl)ccc(F)c1Cl [Example 308, 7-[(R)-1-(2,6-Dichloro-3-fluorophenyl)ethoxy]-3-(5-pyrrolidin-1-ylmethylthiophen-3-yl)furo[3,2-c]pyridin-6-ylamine] | < 500 | < 500
CC(Oc1c(N)ncc2c(-c3cnn(C4CCNCC4)c3)coc12)c1ccccc1 (centres unmarked) [Example 386, 7-(1-Phenylethoxy)-3-(1-piperidin-4-yl-1H-pyrazol-4-yl)furo[3,2-c]pyridin-6-ylamine] | 500 to 5000 | 500 to 5000

Reference: patent publication US8022206B2 (OSI Pharmaceuticals, LLC, priority 2008, dated 2011)
